In US9359358B2, “Cyclohexyl azetidine derivatives as JAK inhibitors” (Incyte Holdings Corporation, priority 2011, dated 2016):
Where a name gives a salt, the structure may show the parent alone.

Experiments:
human JAK1 = target: T1, human JAK1 (Homo sapiens, UniProt P23458); assay: In Vitro JAK Kinase Assay (HTRF, phosphorylation of a biotinylated peptide), JAK1; assay type: biochemical; settings: Table 4; catalytic domain a.a. 837-1142, assay of Example A
T1 construct: human JAK1 (a.a. 837-1142); His tag (N); made in house; host or cells: insect cells (baculovirus)
Description: (§1) The catalytic activity of JAK1, JAK2 or JAK3 was assayed by measuring the phosphorylation of a biotinylated peptide. The phosphorylated peptide was detected by homogenous time resolved fluorescence (HTRF). […] Reactions were carried out at room temperature for 1 hour and then stopped with 20 μL 45 mM EDTA, 300 nM SA-APC, 6 nM Eu-Py20 in assay buffer (Perkin Elmer, Boston, Mass.). Binding to the Europium labeled antibody took place for 40 minutes and HTRF signal was measured on a Fusion plate reader (Perkin Elmer, Boston, Mass.).

human JAK2 = target: T2, human JAK2 (Homo sapiens, UniProt O60674); assay: In Vitro JAK Kinase Assay (HTRF, phosphorylation of a biotinylated peptide), JAK2; assay type: biochemical; settings: Table 4; assay of Example A
T2 construct: JAK2 (a.a. 828-1132); His tag (N); made in house; host or cells: insect cells (baculovirus)
Description: as §1

T1 sequence (P23458 849-1154): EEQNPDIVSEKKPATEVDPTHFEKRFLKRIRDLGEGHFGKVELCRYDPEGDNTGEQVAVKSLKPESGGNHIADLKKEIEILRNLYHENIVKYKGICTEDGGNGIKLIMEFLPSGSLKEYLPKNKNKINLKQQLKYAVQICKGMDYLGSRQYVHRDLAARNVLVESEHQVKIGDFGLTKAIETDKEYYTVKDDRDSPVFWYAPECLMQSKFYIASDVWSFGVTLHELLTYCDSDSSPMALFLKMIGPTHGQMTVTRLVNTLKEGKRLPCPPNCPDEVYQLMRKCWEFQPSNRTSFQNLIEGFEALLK
T2 sequence (O60674 828-1132): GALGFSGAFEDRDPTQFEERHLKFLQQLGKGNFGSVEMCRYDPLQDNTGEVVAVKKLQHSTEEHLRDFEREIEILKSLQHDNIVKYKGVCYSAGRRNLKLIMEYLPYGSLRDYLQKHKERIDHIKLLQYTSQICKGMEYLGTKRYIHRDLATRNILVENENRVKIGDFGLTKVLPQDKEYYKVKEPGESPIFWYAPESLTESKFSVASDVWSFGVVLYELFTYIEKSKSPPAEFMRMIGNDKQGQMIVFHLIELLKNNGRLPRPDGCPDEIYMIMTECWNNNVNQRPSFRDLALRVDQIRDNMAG

Structure (SMILES) | IC50 (human JAK1) | JAK2/JAK1 IC50 ratio (human JAK2)
COCCNCc1cc(O[C@H]2CC[C@@H](N3CC(CC#N)(n4cc(-c5ncnc6[nH]ccc56)cn4)C3)CC2)nc(C(F)(F)F)n1.O=C(O)C(F)(F)F.O=C(O)C(F)(F)F.O=C(O)C(F)(F)F [Example 22, {1-(cis-4-{[6-{[(2-methoxyethyl)amino]methyl}-2-(trifluoromethyl)pyrimidin-4-yl]oxy}cyclohexyl)-3-[4-(7H-pyrrolo[2,3-d]pyrimidin-4-yl)-1H-pyrazol-1-yl]azetidin-3-yl}acetonitrile tris(trifluoroacetate)] | < 10 nM | ≧10
N#CCC1(n2cc(-c3ncnc4[nH]ccc34)cn2)CN([C@H]2CC[C@@H](Oc3cc(CN4CCC4)nc(C(F)(F)F)n3)CC2)C1 [Example 23, {1-(cis-4-{[6-(azetidin-1-ylmethyl)-2-(trifluoromethyl)pyrimidin-4-yl]oxy}cyclohexyl)-3-[4-(7H-pyrrolo[2,3-d]pyrimidin-4-yl)-1H-pyrazol-1-yl]azetidin-3-yl}acetonitrile tris(trifluoroacetate)] | < 10 nM | ≧10
N#CCC1(n2cc(-c3ncnc4[nH]ccc34)cn2)CN([C@H]2CC[C@@H](Oc3cc(CN4CC(O)C4)nc(C(F)(F)F)n3)CC2)C1 [Example 24, {1-(cis-4-{[6-[(3-hydroxyazetidin-1-yl)methyl]-2-(trifluoromethyl)pyrimidin-4-yl]oxy}cyclohexyl)-3-[4-(7H-pyrrolo[2,3-d]pyrimidin-4-yl)-1H-pyrazol-1-yl]azetidin-3-yl}acetonitrile tris(trifluoroacetate) (salt)] | < 10 nM | ≧10
N#CCC1(n2cc(-c3ncnc4[nH]ccc34)cn2)CN([C@H]2CC[C@@H](Oc3cc(CNC[C@@H]4CCCO4)nc(C(F)(F)F)n3)CC2)C1 [Example 27, [3-[4-(7H-pyrrolo[2,3-d]pyrimidin-4-yl)-1H-pyrazol-1-yl]-1-(cis-4-{[6-({[(2S)-tetrahydrofuran-2-ylmethyl]amino}methyl)-2-(trifluoromethyl)pyrimidin-4-yl]oxy}cyclohexyl)azetidin-3-yl]acetonitrile tris(trifluoroacetate)] | < 10 nM | ≧10
CCCNCc1cc(O[C@H]2CC[C@@H](N3CC(CC#N)(n4cc(-c5ncnc6[nH]ccc56)cn4)C3)CC2)nc(C(F)(F)F)n1.O=C(O)C(F)(F)F.O=C(O)C(F)(F)F.O=C(O)C(F)(F)F [Example 32, {1-(cis-4-{[6-[(propylamino)methyl]-2-(trifluoromethyl)pyrimidin-4-yl]oxy}cyclohexyl)-3-[4-(7H-pyrrolo[2,3-d]pyrimidin-4-yl)-1H-pyrazol-1-yl]azetidin-3-yl}acetonitrile tris(trifluoroacetate)] | < 10 nM | ≧10
CCCCNCc1cc(O[C@H]2CC[C@@H](N3CC(CC#N)(n4cc(-c5ncnc6[nH]ccc56)cn4)C3)CC2)nc(C(F)(F)F)n1.O=C(O)C(F)(F)F.O=C(O)C(F)(F)F.O=C(O)C(F)(F)F [Example 34, {1-(cis-4-{[6-[(butylamino)methyl]-2-(trifluoromethyl)pyrimidin-4-yl]oxy}cyclohexyl)-3-[4-(7H-pyrrolo[2,3-d]pyrimidin-4-yl)-1H-pyrazol-1-yl]azetidin-3-yl}acetonitrile tris(trifluoroacetate)] | < 10 nM | ≧10
CCCCN(C)Cc1cc(O[C@H]2CC[C@@H](N3CC(CC#N)(n4cc(-c5ncnc6[nH]ccc56)cn4)C3)CC2)nc(C(F)(F)F)n1.O=C(O)C(F)(F)F.O=C(O)C(F)(F)F.O=C(O)C(F)(F)F [Example 36, {1-(cis-4-{[6-{[butyl(methyl)amino]methyl}-2-(trifluoromethyl)pyrimidin-4-yl]oxy}cyclohexyl)-3-[4-(7H-pyrrolo[2,3-d]pyrimidin-4-yl)-1H-pyrazol-1-yl]azetidin-3-yl}acetonitrile tris(trifluoroacetate)] | < 10 nM | ≧10

Further lines, results first:

IC50 (human JAK1) | JAK2/JAK1 IC50 ratio (human JAK2) | Structure (SMILES)
< 10 nM | ≧10 | N#CCC1(n2cc(-c3ncnc4[nH]ccc34)cn2)CN([C@H]2CC[C@@H](Oc3cc(CN4CCCC4)nc(C(F)(F)F)n3)CC2)C1 [Example 25, {1-(cis-4-{[6-(pyrrolidin-1-ylmethyl)-2-(trifluoromethyl)pyrimidin-4-yl]oxy}cyclohexyl)-3-[4-(7H-pyrrolo[2,3-d]pyrimidin-4-yl)-1H-pyrazol-1-yl]azetidin-3-yl}acetonitrile tris(trifluoroacetate)]
< 10 nM | ≧10 | N#CCC1(n2cc(-c3ncnc4[nH]ccc34)cn2)CN([C@H]2CC[C@@H](Oc3cc(CN4CC[C@H](O)C4)nc(C(F)(F)F)n3)CC2)C1 [Example 26, {1-(cis-4-{[6-{[(3S)-3-hydroxypyrrolidin-1-yl]methyl}-2-(trifluoromethyl)pyrimidin-4-yl]oxy}cyclohexyl)-3-[4-(7H-pyrrolo[2,3-d]pyrimidin-4-yl)-1H-pyrazol-1-yl]azetidin-3-yl}acetonitrile tris(trifluoroacetate) (salt)]
< 10 nM | ≧10 | N#CCC1(n2cc(-c3ncnc4[nH]ccc34)cn2)CN([C@H]2CC[C@@H](Oc3cc(CN4CCC[C@H]4CO)nc(C(F)(F)F)n3)CC2)C1 [Example 28, {1-(cis-4-{[6-{[(2R)-2-(hydroxymethyl)pyrrolidin-1-yl]methyl}-2-(trifluoromethyl)pyrimidin-4-yl]oxy}cyclohexyl)-3-[4-(7H-pyrrolo[2,3-d]pyrimidin-4-yl)-1H-pyrazol-1-yl]azetidin-3-yl}acetonitrile tris(trifluoroacetate) (salt)]
< 10 nM | ≧10 | N#CCC1(n2cc(-c3ncnc4[nH]ccc34)cn2)CN([C@H]2CC[C@@H](Oc3cc(CN4CCC[C@@H]4CO)nc(C(F)(F)F)n3)CC2)C1 [Example 29, {1-(cis-4-{[6-{[(2S)-2-(hydroxymethyl)pyrrolidin-1-yl]methyl}-2-(trifluoromethyl)pyrimidin-4-yl]oxy}cyclohexyl)-3-[4-(7H-pyrrolo[2,3-d]pyrimidin-4-yl)-1H-pyrazol-1-yl]azetidin-3-yl}acetonitrile tris(trifluoroacetate) (salt)]
< 10 nM | ≧10 | N#CCC1(n2cc(-c3ncnc4[nH]ccc34)cn2)CN([C@H]2CC[C@@H](Oc3cc(CN4CC[C@H](F)C4)nc(C(F)(F)F)n3)CC2)C1 [Example 31, {1-(cis-4-{[6-{[(3S)-3-fluoropyrrolidin-1-yl]methyl}-2-(trifluoromethyl)pyrimidin-4-yl]oxy}cyclohexyl)-3-[4-(7H-pyrrolo[2,3-d]pyrimidin-4-yl)-1H-pyrazol-1-yl]azetidin-3-yl}acetonitrile tris(trifluoroacetate)]
< 10 nM | ≧10 | N#CCC1(n2cc(-c3ncnc4[nH]ccc34)cn2)CN([C@H]2CC[C@@H](Oc3cc(CNCC(O)CO)nc(C(F)(F)F)n3)CC2)C1 (stereo partly drawn) [Example 33, {1-(cis-4-{[6-{[(2,3-dihydroxypropyl)amino]methyl}-2-(trifluoromethyl)pyrimidin-4-yl]oxy}cyclohexyl)-3-[4-(7H-pyrrolo[2,3-d]pyrimidin-4-yl)-1H-pyrazol-1-yl]azetidin-3-yl}acetonitrile tris(trifluoroacetate) (salt)]
